Like-named read-outs stand apart in the source and are kept apart here. Where a SMILES comes first, the peptide text is derived from it. Bridges are numbered along the chain shown (N, C = ends).
Biological target: human α7-containing nAChRs (Homo sapiens, UniProt P36544)
Test: cell-based
Format: cell-based

Sequence of human α7-containing nAChRs (P36544 23-502 limits assumed): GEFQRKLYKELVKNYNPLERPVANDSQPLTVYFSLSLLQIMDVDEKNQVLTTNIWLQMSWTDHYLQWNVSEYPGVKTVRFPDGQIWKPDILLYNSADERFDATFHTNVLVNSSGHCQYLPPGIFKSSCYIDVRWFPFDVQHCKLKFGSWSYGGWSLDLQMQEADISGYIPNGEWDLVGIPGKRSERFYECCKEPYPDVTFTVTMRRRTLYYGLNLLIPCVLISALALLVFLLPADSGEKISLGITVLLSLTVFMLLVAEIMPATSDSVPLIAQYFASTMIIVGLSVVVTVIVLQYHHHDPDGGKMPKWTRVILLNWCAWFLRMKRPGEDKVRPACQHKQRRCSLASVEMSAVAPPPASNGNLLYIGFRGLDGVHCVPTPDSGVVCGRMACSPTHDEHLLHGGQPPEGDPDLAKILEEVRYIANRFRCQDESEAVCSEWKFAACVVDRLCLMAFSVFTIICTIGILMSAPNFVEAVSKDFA

Compound `CC(C)[C@H](NC(=O)[C@@H]1CSSC[C@@H]2NC(=O)[C@@H](NC(=O)[C@@H](N)CO)CSSC[C@H](NC(=O)[C@H](C)NC(=O)[C@@H]3CCCN3C(=O)[C@H](CC(N)=O)NC(=O)[C@H](CCCNC(=N)N)NC(=O)[C@H](C)NC2=O)C(=O)N[C@@H](C)C(=O)N[C@@H](Cc2c[nH]cn2)C(=O)N[C@@H](CC(N)=O)C(=O)N[C@@H](Cc2c[nH]cn2)C(=O)N2CCC[C@H]2C(=O)N1)C(N)=O` [gAusIA [R10A]] (H-SCCARNPACAHNHPCV-NH2; disulfide 2-9, 3-15) has an IC50 greater than 100 µM.
In the case of `CC(C)[C@H](NC(=O)[C@@H]1CSSC[C@H](NC(=O)[C@@H](N)CO)C(=O)N[C@H]2CSSC[C@H](NC(=O)[C@H](C)NC(=O)[C@@H]3CCCN3C(=O)[C@H](CC(N)=O)NC(=O)[C@H](CCCNC(=N)N)NC(=O)[C@H](CO)NC2=O)C(=O)N[C@@H](CCCNC(=N)N)C(=O)N[C@@H](Cc2c[nH]cn2)C(=O)N[C@@H](CC(N)=O)C(=O)N[C@@H](Cc2c[nH]cn2)C(=O)N2CCC[C@H]2C(=O)N1)C(N)=O` [rAusIA [A4S]] (H-SCCSRNPACRHNHPCV-NH2; disulfide 2-15, 3-9), the IC50 (SEM) is reported as 32 ± 7.3 µM.
`CC(C)[C@H](NC(=O)[C@@H]1CSSC[C@H](NC(=O)[C@@H](N)CO)C(=O)N[C@H]2CSSC[C@H](NC(=O)[C@H](C)NC(=O)[C@@H]3CCCN3C(=O)[C@H](CC(N)=O)NC(=O)[C@H](C)NC2=O)C(=O)N[C@@H](CCCNC(=N)N)C(=O)N[C@@H](Cc2c[nH]cn2)C(=O)N[C@@H](CC(N)=O)C(=O)N[C@@H](Cc2c[nH]cn2)C(=O)N2CCC[C@H]2C(=O)N1)C(N)=O` [rAusIA [∆5]] (H-SCCANPACRHNHPCV-NH2; disulfide 2-14, 3-8) was tested, and the IC50 (SEM) was 51 ± 11.6 µM.
`CC(C)[C@H](NC(=O)[C@@H]1CSSC[C@@H]2NC(=O)[C@@H](NC(=O)[C@@H](N)CO)CSSC[C@H](NC(=O)[C@H](C)NC(=O)[C@@H]3CCCN3C(=O)[C@H](CC(N)=O)NC(=O)[C@H](C)NC2=O)C(=O)N[C@@H](CCCNC(=N)N)C(=O)N[C@@H](Cc2c[nH]cn2)C(=O)N[C@@H](CC(N)=O)C(=O)N[C@@H](Cc2c[nH]cn2)C(=O)N2CCC[C@H]2C(=O)N1)C(N)=O` [gAusIA [∆5]] (H-SCCANPACRHNHPCV-NH2; disulfide 2-8, 3-14) gave an IC50 (SEM) of 0.59 ± 0.08 µM.
For `CC[C@H](C)[C@@H]1NC(=O)[C@H](CC(N)=O)NC(=O)[C@@H]2CCCN2C(=O)[C@H](CC(N)=O)NC(=O)[C@H](CC(N)=O)NC(=O)[C@H](C(C)C)NC(=O)[C@H](CCCNC(=N)N)NC(=O)[C@@H]2CSSC[C@H](NC(=O)[C@@H](NC(=O)CNC(=O)[C@@H](N)CO)CSSC[C@@H](C(N)=O)NC1=O)C(=O)N[C@@H](CCCNC(=N)N)C(=O)N[C@@H](CC(N)=O)C(=O)N1CCC[C@H]1C(=O)N[C@@H](C)C(=O)N2` [rLsIA [S5R]] (H-SGCCRNPACRVNNPNIC-NH2; disulfide 3-17, 4-9), the IC50 (SEM) was 27 ± 5.3 µM.
For `CC(C)[C@H](NC(=O)[C@@H]1CSSC[C@@H]2NC(=O)[C@@H](NC(=O)CN)CSSC[C@H](NC(=O)[C@H](C)NC(=O)[C@@H]3CCCN3C(=O)[C@H](CC(N)=O)NC(=O)[C@H](CCCNC(=N)N)NC(=O)[C@H](C)NC2=O)C(=O)N[C@@H](CCCNC(=N)N)C(=O)N[C@@H](Cc2c[nH]cn2)C(=O)N[C@@H](CC(N)=O)C(=O)N[C@@H](Cc2c[nH]cn2)C(=O)N2CCC[C@H]2C(=O)N1)C(N)=O` [gAusIA [S1G]] (H-GCCARNPACRHNHPCV-NH2; disulfide 2-9, 3-15), the “Ratio (IC50 ratio between gAusIA/rAusIA and its corresponding analogues)” value was 0.70 and the “antagonistic activity / potency at α7-containing nAChRs in words” value was “comparable potency to gAusIA”.
Work on `CC(C)[C@H](NC(=O)[C@@H]1CSSC[C@H](NC(=O)[C@@H](N)CO)C(=O)N[C@H]2CSSC[C@H](NC(=O)[C@H](C)NC(=O)[C@@H]3CCCN3C(=O)[C@H](CC(N)=O)NC(=O)[C@H](C)NC(=O)[C@H](C)NC2=O)C(=O)N[C@@H](CCCNC(=N)N)C(=O)N[C@@H](Cc2c[nH]cn2)C(=O)N[C@@H](CC(N)=O)C(=O)N[C@@H](Cc2c[nH]cn2)C(=O)N2CCC[C@H]2C(=O)N1)C(N)=O` [rAusIA [R5A]] (H-SCCAANPACRHNHPCV-NH2; disulfide 2-15, 3-9) yielded an IC50 greater than 100 µM.
Work on `CC[C@H](C)[C@@H]1NC(=O)[C@H](CC(N)=O)NC(=O)[C@@H]2CCCN2C(=O)[C@H](CC(N)=O)NC(=O)[C@H](CC(N)=O)NC(=O)[C@H](C(C)C)NC(=O)[C@H](CCCNC(=N)N)NC(=O)[C@@H]2CSSC[C@H](NC(=O)[C@@H](NC(=O)CNC(=O)[C@@H](N)CO)CSSC[C@@H](C(N)=O)NC1=O)C(=O)N[C@@H](C)C(=O)N[C@@H](CO)C(=O)N[C@@H](CC(N)=O)C(=O)N1CCC[C@H]1C(=O)N[C@@H](C)C(=O)N2` [rLsIA [∇A5]] (H-SGCCASNPACRVNNPNIC-NH2; disulfide 3-18, 4-10) yielded an IC50 (SEM) of 57 ± 14.7 µM.
`CC[C@H](C)[C@@H]1NC(=O)[C@H](CC(N)=O)NC(=O)[C@@H]2CCCN2C(=O)[C@H](CC(N)=O)NC(=O)[C@H](CC(N)=O)NC(=O)[C@H](C(C)C)NC(=O)[C@H](CCCNC(=N)N)NC(=O)[C@@H]2CSSC[C@H](NC(=O)CNC(=O)[C@@H](N)CO)C(=O)N[C@@H](CSSC[C@@H](C(N)=O)NC1=O)C(=O)N[C@@H](CO)C(=O)N[C@@H](CCCNC(=N)N)C(=O)N[C@@H](CC(N)=O)C(=O)N1CCC[C@H]1C(=O)N[C@@H](C)C(=O)N2` [gLsIA [∇R6]] (H-SGCCSRNPACRVNNPNIC-NH2; disulfide 3-10, 4-18) gave an IC50 (SEM) of 8 ± 0.52 µM.
`CC[C@H](C)[C@@H]1NC(=O)[C@H](CC(N)=O)NC(=O)[C@@H]2CCCN2C(=O)[C@H](CC(N)=O)NC(=O)[C@H](CC(N)=O)NC(=O)[C@H](C(C)C)NC(=O)[C@H](CCCNC(=N)N)NC(=O)[C@@H]2CSSC[C@H](NC(=O)CNC(=O)[C@@H](N)CO)C(=O)N[C@@H](CSSC[C@@H](C(N)=O)NC1=O)C(=O)N[C@@H](C)C(=O)N[C@@H](CO)C(=O)N[C@@H](CC(N)=O)C(=O)N1CCC[C@H]1C(=O)N[C@@H](C)C(=O)N2` [gLsIA [∇A5]] (H-SGCCASNPACRVNNPNIC-NH2; disulfide 3-10, 4-18) was tested, and the IC50 (SEM) was 48 ± 13.2 µM.
For `CC[C@H](C)[C@@H]1NC(=O)[C@H](CC(N)=O)NC(=O)[C@@H]2CCCN2C(=O)[C@H](CC(N)=O)NC(=O)[C@H](CC(N)=O)NC(=O)[C@H](C(C)C)NC(=O)[C@H](CCCNC(=N)N)NC(=O)[C@@H]2CSSC[C@H](NC(=O)CNC(=O)[C@@H](N)CO)C(=O)N[C@@H](CSSC[C@@H](C(N)=O)NC1=O)C(=O)N[C@@H](CCCNC(=N)N)C(=O)N[C@@H](CC(N)=O)C(=O)N1CCC[C@H]1C(=O)N[C@@H](C)C(=O)N2` [gLsIA [S5R]] (H-SGCCRNPACRVNNPNIC-NH2; disulfide 3-9, 4-17), the IC50 (SEM) was 0.24 ± 0.04 µM.
For `C[C@@H]1NC(=O)[C@@H]2CSSC[C@H](NC(=O)[C@H](C)NC(=O)[C@@H]3CCCN3C(=O)[C@H](CC(N)=O)NC1=O)C(=O)N[C@@H](CCCNC(=N)N)C(=O)N[C@@H](Cc1c[nH]cn1)C(=O)N[C@@H](CC(N)=O)C(=O)N[C@@H](Cc1c[nH]cn1)C(=O)N1CCC[C@H]1C(=O)N[C@H](C(N)=O)CSSC[C@H](NC(=O)[C@@H](N)CO)C(=O)N2` [rAusIA [∆5 ∆16]] (H-SCCANPACRHNHPC-NH2; disulfide 2-14, 3-8), the IC50 (SEM) was 27 ± 5.3 µM.
For `CC(C)[C@H](NC(=O)[C@@H]1CSSC[C@H](NC(=O)[C@@H](N)CO)C(=O)N[C@H]2CSSC[C@H](NC(=O)[C@H](C)NC(=O)[C@@H]3CCCN3C(=O)[C@H](CC(N)=O)NC(=O)[C@H](CO)NC2=O)C(=O)N[C@@H](CCCNC(=N)N)C(=O)N[C@@H](Cc2c[nH]cn2)C(=O)N[C@@H](CC(N)=O)C(=O)N[C@@H](Cc2c[nH]cn2)C(=O)N2CCC[C@H]2C(=O)N1)C(N)=O` [rAusIA [A4S ∆5]] (H-SCCSNPACRHNHPCV-NH2; disulfide 2-14, 3-8), the IC50 (SEM) was 29 ± 1.1 µM.

Source: article PMC8578332 (Scientific Reports, 2021)
